These results are taken from ChEMBL document CHEMBL1134339, “New 1-aryl-3-(4-arylpiperazin-1-yl)propane derivatives, with dual action at 5-HT1A serotonin receptors and serotonin transporter, as a new class of antidepressants” (J Med Chem, 2001).

The target in experiment [1] is T1, Adrenergic receptor alpha-1 (Rattus norvegicus, UniProt P15823+P23944+P43140).
T1 sequence (P15823 whole entry): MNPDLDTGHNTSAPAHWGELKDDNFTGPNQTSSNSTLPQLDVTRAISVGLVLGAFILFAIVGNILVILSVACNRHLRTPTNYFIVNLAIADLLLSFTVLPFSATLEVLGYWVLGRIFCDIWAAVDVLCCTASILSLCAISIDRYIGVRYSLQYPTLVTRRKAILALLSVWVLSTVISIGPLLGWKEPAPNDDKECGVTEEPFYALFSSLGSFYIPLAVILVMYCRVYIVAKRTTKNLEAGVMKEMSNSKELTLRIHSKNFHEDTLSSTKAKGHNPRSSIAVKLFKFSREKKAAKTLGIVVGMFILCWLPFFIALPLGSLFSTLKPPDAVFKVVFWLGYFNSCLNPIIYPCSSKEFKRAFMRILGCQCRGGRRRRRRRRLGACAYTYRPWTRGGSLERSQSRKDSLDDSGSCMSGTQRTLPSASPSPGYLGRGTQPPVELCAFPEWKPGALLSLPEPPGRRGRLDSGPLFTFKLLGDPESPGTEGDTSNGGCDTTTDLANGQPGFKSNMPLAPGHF
T1 sequence (P23944 whole entry): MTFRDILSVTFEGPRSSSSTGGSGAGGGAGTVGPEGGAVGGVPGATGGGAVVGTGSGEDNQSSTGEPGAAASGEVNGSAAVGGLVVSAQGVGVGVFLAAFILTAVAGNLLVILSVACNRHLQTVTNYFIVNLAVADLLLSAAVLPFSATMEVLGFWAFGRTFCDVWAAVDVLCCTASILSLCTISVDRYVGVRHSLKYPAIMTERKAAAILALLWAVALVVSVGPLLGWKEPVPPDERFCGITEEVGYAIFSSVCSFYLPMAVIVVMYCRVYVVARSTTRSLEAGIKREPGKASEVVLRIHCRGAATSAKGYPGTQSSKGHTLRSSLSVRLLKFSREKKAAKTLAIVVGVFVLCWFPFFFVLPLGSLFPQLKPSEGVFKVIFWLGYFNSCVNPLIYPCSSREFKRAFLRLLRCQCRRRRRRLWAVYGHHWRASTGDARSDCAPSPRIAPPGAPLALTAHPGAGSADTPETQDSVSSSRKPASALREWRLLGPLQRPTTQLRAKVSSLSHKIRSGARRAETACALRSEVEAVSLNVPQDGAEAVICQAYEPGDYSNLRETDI
T1 sequence (P43140 whole entry): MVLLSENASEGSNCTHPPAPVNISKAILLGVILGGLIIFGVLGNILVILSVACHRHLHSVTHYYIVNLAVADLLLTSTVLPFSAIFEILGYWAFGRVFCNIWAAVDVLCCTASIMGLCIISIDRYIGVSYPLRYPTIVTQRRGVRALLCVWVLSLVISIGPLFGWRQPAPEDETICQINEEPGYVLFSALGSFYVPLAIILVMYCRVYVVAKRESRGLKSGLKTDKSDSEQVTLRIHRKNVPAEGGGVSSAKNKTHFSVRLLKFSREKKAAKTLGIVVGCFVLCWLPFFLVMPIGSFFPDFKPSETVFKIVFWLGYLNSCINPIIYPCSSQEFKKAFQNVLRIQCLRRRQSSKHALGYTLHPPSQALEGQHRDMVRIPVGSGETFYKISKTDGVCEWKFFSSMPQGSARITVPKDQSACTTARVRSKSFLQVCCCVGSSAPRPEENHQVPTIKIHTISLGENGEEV
The experiment is described as follows: Affinity towards alpha-1 adrenergic receptor from rat cortex using [3H]prazosin radioligand (For prazosin Ki(nM)= […]+/-[…]).

The test system of experiment [2] is Mus musculus. As to the kind of experiment: Time-dependent effect on 8-OH-DPAT-induced hypothermia (change in body temperature) after 15 min, in mice at 0.5 mg/kg dose. It is filed as functional.
The target in experiment [3] is T2, 5-hydroxytryptamine receptor 1A (Homo sapiens) (UniProt P08908).
T2 sequence (whole entry): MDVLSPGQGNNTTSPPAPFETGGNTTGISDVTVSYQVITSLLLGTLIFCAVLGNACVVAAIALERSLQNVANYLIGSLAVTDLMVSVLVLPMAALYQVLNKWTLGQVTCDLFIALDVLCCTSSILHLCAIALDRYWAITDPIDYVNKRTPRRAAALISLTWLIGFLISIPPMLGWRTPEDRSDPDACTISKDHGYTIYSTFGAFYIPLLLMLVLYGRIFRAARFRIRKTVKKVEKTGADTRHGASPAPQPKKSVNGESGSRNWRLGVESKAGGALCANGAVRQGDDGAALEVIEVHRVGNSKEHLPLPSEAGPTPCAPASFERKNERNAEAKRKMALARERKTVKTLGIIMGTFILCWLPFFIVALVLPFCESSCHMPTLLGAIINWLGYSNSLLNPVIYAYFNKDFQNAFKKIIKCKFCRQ
To be noted: HeLa.
Description: Effect (1 uM) on Forskolin-Stimulated cAMP formation, in HeLa cells transfected with the 5-HT 1A receptor

Experiment [4] relates to Mus musculus. The experiment is described as follows: Effect on immobility time in the forced swimming test (FST) in mice at 10 mg/kg dose. It is filed as functional.
The test system of experiment [5] is Mus musculus. The experiment is described as follows: Time-dependent effect on 8-OH-DPAT-induced hypothermia (change in body temperature) after 60 min, in mice at 5 mg/kg dose. It is filed as functional.
The target in experiment [6] is Sodium-dependent serotonin transporter (Rattus norvegicus, UniProt P31652). As to the kind of experiment: Binding affinity towards Serotonin transporter from rat cortex measured using [3H]paroxetine. To be noted: read-out: Ki.
Experiment [7] deals with Mus musculus. As to the kind of experiment: Time-dependent effect on 8-OH-DPAT-induced hypothermia (change in body temperature) after 15 min, in mice at 0.1 mg/kg dose. It is filed as functional.
The test system of experiment [8] is Mus musculus. The experiment is described as follows: Time-dependent effect on 8-OH-DPAT-induced hypothermia (change in body temperature) after 60 min, in mice at 0.5 mg/kg dose. It is filed as functional.
Experiment [9] relates to Mus musculus. As to the kind of experiment: Effect on immobility time in the forced swimming test (FST) in mice at 1 mg/kg dose. It is filed as functional.
Experiment [10] relates to Rattus norvegicus. The experiment is described as follows: Effect on helpless behavior in rats and the number of escape failures was determined in shuttle-box session-1 (SB-1) at 1 mg/kg dose. It is filed as functional.
The test system of experiment [11] is Mus musculus. The experiment is described as follows: Effect on immobility time in the forced swimming test (FST) in mice at 0 mg/kg dose. The experiment is classed as functional.
Experiment [12] deals with Rattus norvegicus. As to the kind of experiment: Effect on helpless behavior in rats and the number of escape failures was determined in shuttle-box session-2 (SB-2) at 1 mg/kg dose. It is filed as functional.

What is called Ki is the equilibrium dissociation constant of an inhibitor or competing ligand from its target.

Chain of Sodium-dependent serotonin transporter (P31652 whole entry): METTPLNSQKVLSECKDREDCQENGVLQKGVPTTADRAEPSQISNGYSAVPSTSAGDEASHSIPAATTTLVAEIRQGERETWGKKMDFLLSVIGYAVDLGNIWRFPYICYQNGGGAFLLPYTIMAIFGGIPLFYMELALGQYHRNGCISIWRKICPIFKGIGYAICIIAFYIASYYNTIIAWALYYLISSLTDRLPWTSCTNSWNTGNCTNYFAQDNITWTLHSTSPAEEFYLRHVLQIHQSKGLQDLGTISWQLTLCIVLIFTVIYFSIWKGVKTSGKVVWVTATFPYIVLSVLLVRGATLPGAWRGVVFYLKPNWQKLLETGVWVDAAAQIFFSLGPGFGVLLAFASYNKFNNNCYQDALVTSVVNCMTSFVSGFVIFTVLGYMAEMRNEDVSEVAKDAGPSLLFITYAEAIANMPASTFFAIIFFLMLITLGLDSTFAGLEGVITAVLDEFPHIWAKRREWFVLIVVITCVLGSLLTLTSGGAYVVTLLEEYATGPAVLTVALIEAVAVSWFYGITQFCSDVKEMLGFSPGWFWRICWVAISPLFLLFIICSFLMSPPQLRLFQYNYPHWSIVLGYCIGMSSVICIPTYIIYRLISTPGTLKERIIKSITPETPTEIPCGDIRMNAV

On to `COc1ccccc1N1CCN(CCC(=O)c2csc3ccccc23)CC1`, for which the Ki in [1] was found to be 6 nM; in experiment [6], 105 nM. Further, the Temperature change with Mus musculus [2] was <-1.58 °C; in the experiment with Mus musculus [5], -1.27 °C; in the experiment with Mus musculus [7], -2.14 °C; in the experiment with Mus musculus [8] it was <-0.47 °C. For the same compound, the cAMP in [3] was < 20.8 pmol/well. The Immobility time is <86.6 s in the experiment with Mus musculus [4], <77.1 s in the experiment on Mus musculus [9] and 169.4 s in the experiment with Mus musculus [11]. Further, the “No. of escape failures” value in the experiment on Rattus norvegicus [10] is <9.8; in the experiment with Rattus norvegicus [12] it was <4.

Take `COc1ccccc1N1CCN(CCC(O)c2csc3ccccc23)CC1` (stereo unspecified): the Ki came out at 35 nM in [1] and 20 nM in experiment [6]. In addition, the Temperature change in the experiment on Mus musculus [2] was -1.23 °C; in the experiment on Mus musculus [5], -1.16 °C; in the experiment on Mus musculus [7] it was -1.6 °C; in the experiment on Mus musculus [8] it was -0.63 °C. The cAMP in [3] is 18.1 pmol/well. Moreover, the results for the Immobility time in the experiment with Mus musculus [4], in the experiment with Mus musculus [9] and in the experiment with Mus musculus [11] were 143.5 s, 101.8 s and 145 s, respectively. In addition, the “No. of escape failures” value in the experiment on Rattus norvegicus [10] turned out to be 8; in the experiment with Rattus norvegicus [12] it was 2.3.

Regarding `COc1ccccc1N1CCN(CCC(Oc2cccc3ccccc23)c2ccsc2)CC1` (stereo unspecified), the Ki in experiment [1] was 135 nM; in [6], 150 nM. Further, the Temperature change with Mus musculus [2] was -1.72 °C; in the experiment with Mus musculus [5], -1.22 °C; in the experiment with Mus musculus [7], -2.12 °C; in the experiment on Mus musculus [8] it was -0.52 °C. The cAMP in experiment [3] was < 15.4 pmol/well. In addition, the Immobility time in the experiment on Mus musculus [4] was <91.1 s; with Mus musculus [9] it was <91.6 s; in the experiment on Mus musculus [11], 157.1 s. For the same compound, the figures for the “No. of escape failures” value in the experiment with Rattus norvegicus [10] and in the experiment on Rattus norvegicus [12] were 5.8 and 1.3, respectively.
